According to paper PMC12186844 (ACS Chemical Neuroscience, 2025):
Changes are numbered by the printed parent chain. Like-named read-outs stand apart in the source and are kept apart here.

Key:
[1] = target: T1, SNAP-D2SR L76^2.46A (Homo sapiens, UniProt P14416, L76A); assay: cell membrane [3H]spiperone assay
Procedure: (§1) Flp-In-CHO cells stably expressing the wild-type or mutant DRs were grown to 90% confluence in 175 cm^2 cell culture flasks. The cells were harvested in PBS containing 2 mM EDTA and centrifuged at 300g for 3 min. The resulting pellet was resuspended in ice-cold assay buffer (20 mM HEPES, 100 mM NaCl, 6 mM MgCl2, 1 mM EGTA, and 1 mM EDTA, pH 7.4), and the centrifugation step was repeated. The intact cell pellet was then resuspended in assay buffer and homogenized using a Polytron homogenizer. After centrifugation (1000g, 10 min), the pellet was discarded, and the supernatant was recentrifuged at 30,000g for 1 h at 4 °C using a Sorvall Evolution RC ultracentrifuge (Thermo Scientific). The resulting pellet was resuspended in assay buffer and stored in 250 μL aliquots at −80 °C. Membrane protein concentration was determined using a Pierce’s BCA protein assay kit (Thermo Fisher, Melbourne).
(§2) [^3H]­Spiperone binding experiments using cell membranes were conducted in a 200 μL reaction volume in assay buffer (20 mM HEPES, 100 mM NaCl, 6 mM MgCl2, 1 mM EGTA, and 1 mM EDTA, pH 7.4) containing 100 μM GppNHp and 0.1% ascorbic acid in 96-well plates. […] In all cases, nonspecific binding was determined in the presence of 10 μM haloperidol. […] Filter bound radioactivity was detected as a chemiluminescence after the addition of MicroScint-20 (Revvity) in a MicroBeta plate counter (Revvity). […]

[2] = target: SNAP-D2SR F353^6.44A (Homo sapiens, UniProt P14416, F382A); assay: cell membrane [3H]spiperone assay
Procedure: as §1, §2

[3] = target: D2LR (Homo sapiens, UniProt P14416); assay: whole cell [3H]raclopride binding assay
Sequence of D2LR (P14416 whole entry): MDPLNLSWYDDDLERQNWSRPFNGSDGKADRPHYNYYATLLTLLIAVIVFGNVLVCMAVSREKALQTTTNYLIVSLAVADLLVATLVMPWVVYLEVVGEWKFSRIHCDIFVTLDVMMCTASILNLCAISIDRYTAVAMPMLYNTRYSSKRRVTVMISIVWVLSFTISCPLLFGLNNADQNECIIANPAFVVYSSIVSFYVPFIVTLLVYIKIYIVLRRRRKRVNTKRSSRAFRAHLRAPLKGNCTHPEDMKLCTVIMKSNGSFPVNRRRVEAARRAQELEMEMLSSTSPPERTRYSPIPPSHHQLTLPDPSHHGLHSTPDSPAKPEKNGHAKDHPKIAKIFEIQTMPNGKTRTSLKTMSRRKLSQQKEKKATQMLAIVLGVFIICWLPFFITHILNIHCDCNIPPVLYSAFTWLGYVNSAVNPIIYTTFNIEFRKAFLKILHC
Procedure: The binding reaction was conducted in HBSS for 1 h at 37 °C. The adherent cells were washed two times with cold 0.9% NaCl solution, and 100 μL/well scintilation liquid was added to the plate. The remaining radioactivity was detected in a MicroBeta counter.

[4] = target: T2, SNAP-D2SR C118^3.36A (Homo sapiens, UniProt P14416, C118A); assay: cell membrane [3H]spiperone assay
T2 sequence (P14416 1-414 isoform P14416-2 C118A): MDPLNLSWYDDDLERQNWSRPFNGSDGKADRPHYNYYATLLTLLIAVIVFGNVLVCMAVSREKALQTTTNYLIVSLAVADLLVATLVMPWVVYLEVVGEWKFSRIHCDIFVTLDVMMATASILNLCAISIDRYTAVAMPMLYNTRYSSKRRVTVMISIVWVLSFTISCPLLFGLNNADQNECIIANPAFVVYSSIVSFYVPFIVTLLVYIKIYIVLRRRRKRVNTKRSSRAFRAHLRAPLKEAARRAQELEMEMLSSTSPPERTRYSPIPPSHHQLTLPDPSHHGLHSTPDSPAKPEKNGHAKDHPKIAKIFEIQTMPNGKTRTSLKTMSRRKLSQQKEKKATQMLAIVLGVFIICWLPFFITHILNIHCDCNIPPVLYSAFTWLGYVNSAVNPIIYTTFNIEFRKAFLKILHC
Procedure: as §1, §2

[5] = system: 6-OHDA contralateral turning model; details: with subeffective dose of L-DOPA; earlier report, reference number not given; cited from earlier work
[6] = target: T3, SNAP-D2SR I128^3.46A (Homo sapiens, UniProt P14416, I128A); assay: cell membrane [3H]spiperone assay
T3 sequence (P14416 1-414 isoform P14416-2 I128A): T2 sequence (P14416 1-414 isoform P14416-2 C118A) with A118C, I128A
Procedure: as §1, §2

[7] = target: T1, SNAP-D2SR L76^2.46A; assay: functional cAMP assay, BRET biosensor; format: cell-based
Procedure: (§3) Flp-In-CHO cells stably coexpressing the CAMYEL biosensor and DRs were plated into white 96-well CulturPlates (Revvity) and grown overnight. The cells were equilibrated in Hank’s balanced salt solution (HBSS) at 37 °C (or 25 °C when indicated) before starting the experiment. The cells were costimulated with the agonists and 10 μM forskolin for the indicated time frames when the BRET readings were captured. Coelenterazine (Nanolight Technology, AZ) was added at a final concentration of 5 μM at least 3 min prior to measurement. […] Net BRET was determined by subtraction of the vehicle control coadded with 10 μM forskolin.
(§4) Dose–response curves were fitted using the following three-parameter equation: response=bottom+top−bottom/1+10^(logEC50−log[A]) 5 where top and bottom represent the maximal and minimal asymptote of the dose response curve, [A] is the molar concentration of the agonist, and EC50 is the molar concentration of the agonist required to give a response half-way between bottom and top.

[8] = target: SNAP-D2SR T398^7.54A (Homo sapiens, UniProt P14416, T427A); assay: cell membrane [3H]spiperone assay
Sequence of SNAP-D2SR T398^7.54A (P14416 1-414 isoform P14416-2 T398A): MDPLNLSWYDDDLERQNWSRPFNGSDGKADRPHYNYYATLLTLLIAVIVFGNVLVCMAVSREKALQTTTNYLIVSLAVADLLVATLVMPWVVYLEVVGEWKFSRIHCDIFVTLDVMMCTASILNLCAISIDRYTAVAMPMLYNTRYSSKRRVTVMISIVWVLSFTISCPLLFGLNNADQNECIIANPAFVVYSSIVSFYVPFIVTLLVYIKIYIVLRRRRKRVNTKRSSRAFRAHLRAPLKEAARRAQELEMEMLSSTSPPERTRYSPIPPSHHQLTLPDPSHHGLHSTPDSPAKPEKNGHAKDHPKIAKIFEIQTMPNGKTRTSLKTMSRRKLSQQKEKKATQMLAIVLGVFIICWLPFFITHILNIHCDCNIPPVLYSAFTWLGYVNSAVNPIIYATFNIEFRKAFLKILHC
Procedure: as §1, §2

[9] = target: T2, SNAP-D2SR C118^3.36A; assay: functional cAMP assay, BRET biosensor; format: cell-based
Procedure: as §3, §4

[10] = target: SNAP-D2SR D80^2.50A (Homo sapiens, UniProt P14416, D80A); assay: functional cAMP assay, BRET biosensor; format: cell-based
Sequence of SNAP-D2SR D80^2.50A (P14416 1-414 isoform P14416-2 D80A): as the sequence (P14416 1-414 isoform P14416-2 T398A) above, with D80A, A398T counted along it
Procedure: as §3, §4

[11] = target: SNAP-D2SR N52^1.50A (Homo sapiens, UniProt P14416, N52A); assay: functional cAMP assay, BRET biosensor; format: cell-based
Sequence of SNAP-D2SR N52^1.50A (P14416 1-414 isoform P14416-2 N52A): as the sequence (P14416 1-414 isoform P14416-2 T398A) above, with N52A, A398T counted along it
Procedure: as §3, §4

[12] = cooperativity with [3H]raclopride
[13] = cooperativity with aripiprazole
[14] = cooperativity with bromocriptine
[15] = orthosteric ligand [3H]raclopride
[16] = orthosteric ligand aripiprazole
[17] = orthosteric ligand bromocriptine
[18] = titration of D2 PAM2 vs [3H]raclopride
[19] = titration, cooperativity with [3H]raclopride
[20] = read-out: D2 PAM2 KB (converted)

T1 sequence (P14416 1-414 isoform P14416-2 L76A): as the sequence (P14416 1-414 isoform P14416-2 T398A) above, with L76A, A398T counted along it
Sequence of SNAP-D2SR F353^6.44A (P14416 1-414 isoform P14416-2 F353A): as the sequence (P14416 1-414 isoform P14416-2 T398A) above, with F353A, A398T counted along it

fold shift + 10 μM PAM ([1]; shift of DA IC50): 3.5 fold
ΔpIC50 + 10 μM PAM ([1]; shift of DA pIC50): 0.55 ± 0.07
fold shift + 10 μM PAM ([2]; shift of DA IC50): 1.3 fold
ΔpIC50 + 10 μM PAM ([2]; shift of DA pIC50): 0.10 ± 0.12
fold inhibition of [3H]raclopride affinity [3]: 2.43 fold
Logα ([3]; cooperativity with S-(3)-PPP): 0.40 ± 0.11
α ([3]; cooperativity with S-(3)-PPP): 2.5
Logα [3, 12]: -0.39 ± 0.12
α [3, 12]: −0.39
α ([3]; cooperativity with [3H]raclopride, listed as D2 PAM): 0.41
Logα ([3]; cooperativity with apomorphine): 1.05 ± 0.11
α ([3]; cooperativity with apomorphine): 11
Logα [3, 13]: 0.43 ± 0.10
α [3, 13]: 2.7
Logα [3, 14]: 0.27 ± 0.07
α [3, 14]: 1.9
Logα ([3]; cooperativity with dopamine): 1.33 ± 0.10
α ([3]; cooperativity with dopamine): 22
α ([3]; cooperativity with dopamine, listed as D2 PAM): 21
Logα ([3]; cooperativity with lisuride): 0.55 ± 0.04
α ([3]; cooperativity with lisuride): 3.5
Logα ([3]; cooperativity with pergolide): 1.24 ± 0.14
α ([3]; cooperativity with pergolide): 17
Logα ([3]; cooperativity with pramipexole): 1.21 ± 0.11
α ([3]; cooperativity with pramipexole): 16
Logα ([3]; cooperativity with ropirinole): 1.14 ± 0.11
α ([3]; cooperativity with ropirinole): 14
Logα ([3]; cooperativity with rotigotine): 1.37 ± 0.09
α ([3]; cooperativity with rotigotine): 23
Kb ([3]; orthosteric ligand S-(3)-PPP): 5.12 µM
pKB ([3]; orthosteric ligand S-(3)-PPP): 5.29 ± 0.05
Kb [3, 15]: 5.5 µM
pKB [3, 15]: 5.26 ± 0.10
Kb ([3]; orthosteric ligand apomorphine): 6.31 µM
pKB ([3]; orthosteric ligand apomorphine): 5.20 ± 0.10
Kb [3, 16]: 7.24 µM
pKB [3, 16]: 5.14 ± 0.04
Kb [3, 17]: 8.12 µM
pKB [3, 17]: 5.09 ± 0.13
Kb ([3]; orthosteric ligand dopamine): 5.5 µM
pKB ([3]; orthosteric ligand dopamine): 5.26 ± 0.10
Kb ([3]; orthosteric ligand lisuride): 5.62 µM
pKB ([3]; orthosteric ligand lisuride): 5.25 ± 0.07
Kb ([3]; orthosteric ligand pergolide): 8.32 µM
pKB ([3]; orthosteric ligand pergolide): 5.08 ± 0.10
Kb ([3]; orthosteric ligand pramipexole): 6.92 µM
pKB ([3]; orthosteric ligand pramipexole): 5.16 ± 0.11
Kb ([3]; orthosteric ligand ropirinole): 8.71 µM
pKB ([3]; orthosteric ligand ropirinole): 5.06 ± 0.06
Kb ([3]; orthosteric ligand rotigotine): 4.68 µM
pKB ([3]; orthosteric ligand rotigotine): 5.33 ± 0.14
Kb ([3]; read-out: Kb, affinity for the unoccupied receptor, DA competition, allosteric ternary complex model): 5.5 µM
Kb [3, 18]: 5.5 µM
pKb [3, 18]: 5.26
Logα [3, 19]: -0.37
α [3, 19]: 0.43
fold shift + 10 μM PAM ([4]; shift of DA IC50): 2 fold
ΔpIC50 + 10 μM PAM ([4]; shift of DA pIC50): 0.31 ± 0.10
fold shift + 10 μM PAM ([6]; shift of DA IC50): 1.1 fold
ΔpIC50 + 10 μM PAM ([6]; shift of DA pIC50): 0.06 ± 0.13
D2 PAM2 log τ [7]: –3
D2 PAM2 pKB [7]: 5.52 ± 0.31
fold decrease in cooperativity between D2 PAM2 and DA [7]: 5 fold
Kb [7, 20]: 3000 nM
D2 PAM2 log αβ ([7]; with DA): 0.56 ± 0.09
D2 PAM2 αβ ([7]; with DA): 3.6
fold shift + 10 μM PAM ([8]; shift of DA IC50): 1 fold
ΔpIC50 + 10 μM PAM ([8]; shift of DA pIC50): –0.01 ± 0.05
D2 PAM2 log τ [9]: –0.24 ± 0.05
D2 PAM2 pKB [9]: 4.82 ± 0.15
D2 PAM2 τ [9]: 0.57
Kb [9, 20]: 15 µM
D2 PAM2 log αβ ([9]; with DA): 1.30 ± 0.13
D2 PAM2 αβ ([9]; with DA): 20
D2 PAM2 log τ [10]: –0.78 ± 0.25
D2 PAM2 pKB [10]: 4.82 ± 0.18
D2 PAM2 τ [10]: 0.17
D2 PAM2 log αβ ([10]; with DA): 0.96 ± 0.25
D2 PAM2 αβ ([10]; with DA): 9.0
D2 PAM2 log τ [11]: 0.23 ± 0.07
D2 PAM2 pKB [11]: 4.89 ± 0.21
D2 PAM2 τ [11]: 1.69
Kb [11, 20]: 12.8 µM
D2 PAM2 log αβ ([11]; with DA): 1.18 ± 0.28
D2 PAM2 αβ ([11]; with DA): 15
Compound: COc1cc(CO)c(F)cc1C(=O)n1ccc2c(F)cccc21 [D2 PAM2, [5-fluoro-4-(hydroxymethyl)-2-methoxyphenyl]-(4-fluoro-1H-indol-1-yl)methanone]
effect on L-DOPA in a rodent model of Parkinson's disease [5]: potentiate a subeffective dose of L-DOPA
